# Calls of active or inactive are those of the source. The calls are words filed in the database; no cut-off is given here.
# Assays:
# Format in all cases: functional
# Escherichia coli [1] = assay: Antibacterial activity against Escherichia coli at 100 ug/mL after 48 hrs by cup-plate method
# Escherichia coli [2] = assay: Antibacterial activity against Escherichia coli at 50 ug/mL after 48 hrs by cup-plate method
# Escherichia coli [3] = assay: Antibacterial activity against Escherichia coli at 25 ug/mL after 48 hrs by cup-plate method; conditions: for zone of inhibition at 25 µg/mL: read-out: IZ
# Bacillus [4] = assay: Antibacterial activity against […] at 100 ug/mL after 48 hrs by cup-plate method
# Bacillus [5] = assay: Antibacterial activity against […] at 50 ug/mL after 48 hrs by cup-plate method
# Bacillus [6] = assay: Antibacterial activity against […] at 25 ug/mL after 48 hrs by cup-plate method; conditions: for zone of inhibition at 25 µg/mL: read-out: IZ
# Aspergillus niger [7] = assay: Antifungal activity against Aspergillus niger at 100 ug/mL after 48 hrs by cup-plate method
# Aspergillus niger [8] = assay: Antifungal activity against Aspergillus niger at 50 ug/mL after 48 hrs by cup-plate method
# Aspergillus niger [9] = assay: Antifungal activity against Aspergillus niger at 25 ug/mL after 48 hrs by cup-plate method; conditions: for zone of inhibition at 25 µg/mL: read-out: IZ
# Macrophomina phaseolina [10] = assay: Antifungal activity against Rhizoctonia bataticola at 100 ug/mL after 48 hrs by cup-plate method
# Macrophomina phaseolina [11] = assay: Antifungal activity against Rhizoctonia bataticola at 50 ug/mL after 48 hrs by cup-plate method; conditions: for zone of inhibition at 50 µg/mL: read-out: IZ
# Macrophomina phaseolina [12] = assay: Antifungal activity against Rhizoctonia bataticola at 25 ug/mL after 48 hrs by cup-plate method
Compound,inhibition at 100 µg/mL (Escherichia coli [1]) [%],inhibition at 50 µg/mL (Escherichia coli [2]) [%],Activity (Escherichia coli [3]),inhibition at 100 µg/mL (Bacillus [4]) [%],inhibition at 50 µg/mL (Bacillus [5]) [%],Activity (Bacillus [6]),inhibition at 100 µg/mL (Aspergillus niger [7]) [%],inhibition at 50 µg/mL (Aspergillus niger [8]) [%],inhibition at 25 µg/mL (Aspergillus niger [9]) [%],zone of inhibition at 25 µg/mL (Aspergillus niger [9]) [mm],inhibition at 100 µg/mL (Macrophomina phaseolina [10]) [%],inhibition at 50 µg/mL (Macrophomina phaseolina [11]) [%],zone of inhibition at 50 µg/mL (Macrophomina phaseolina [11]) [mm],inhibition at 25 µg/mL (Macrophomina phaseolina [12]) [%],inhibition at 25 µg/mL (Escherichia coli [3]) [%],zone of inhibition at 25 µg/mL (Escherichia coli [3]) [mm],inhibition at 25 µg/mL (Bacillus [6]) [%],zone of inhibition at 25 µg/mL (Bacillus [6]) [mm],Activity (Aspergillus niger [9]),Activity (Macrophomina phaseolina [12]),further results
O=c1cc(CNc2ccc(F)cc2)c2ccccc2[nH]1,57,34,inactive,68,36,inactive,63,41,24,54,60,36,90,21,–,–,–,–,–,–,–
Cc1cccc2c(COc3ccc(F)cc3)cc(=O)[nH]c12,57,33,inactive,62,31,inactive,60,36,22,52,58,36,90,21,–,–,–,–,–,–,–
Cc1ccc2c(CNc3ccc(Cl)cc3)cc(=O)oc2c1,62,36,–,60,34,–,52,21,–,–,54,32,84,–,17,44,17,44,inactive,inactive,–
Cc1ccc2c(COc3ccc(Br)cc3)cc(=O)oc2c1,66,37,–,63,37,–,52,22,–,–,57,32,84,–,20,48,20,48,inactive,inactive,–
Cc1ccc2c(COc3ccc(F)cc3)cc(=O)oc2c1,62,37,–,64,37,–,52,21,–,–,53,30,80,–,17,44,21,50,inactive,inactive,–
Cc1ccc2c(COc3ccc(Cl)cc3)cc(=O)oc2c1,65,35,–,62,33,–,50,22,–,–,54,27,75,–,14,40,14,40,inactive,inactive,–
O=c1cc(COc2ccc(Br)cc2)c2cc(Cl)ccc2[nH]1,50,30,inactive,58,25,inactive,62,36,21,50,55,32,82,–,–,–,–,–,–,inactive,–
O=c1cc(COc2ccc(Cl)cc2)c2ccc(Cl)cc2[nH]1,48,27,inactive,56,25,inactive,50,21,–,–,51,35,78,–,–,–,–,–,inactive,inactive,–
O=c1cc(COc2ccc(Cl)cc2)c2cc(Cl)ccc2[nH]1,50,30,inactive,60,31,inactive,53,25,–,–,55,33,84,–,–,–,–,–,inactive,inactive,–
O=c1cc(COc2ccc(Br)cc2)c2ccc(Cl)cc2[nH]1,50,30,inactive,60,26,inactive,60,35,18,46,54,31,80,–,–,–,–,–,–,inactive,–
CCn1cc(C(=O)O)c(=O)c2cc(F)c(N3CCNCC3)cc21 [NORFLOXACIN],100,100,–,100,100,–,100,100,100,–,100,100,–,100,100,–,100,–,–,–,–
O=c1cc(CNc2ccc(F)cc2)c2cc(Cl)ccc2o1,95,64,–,99,83,–,90,73,64,–,91,76,–,68,51,92,64,–,–,–,–
COC1=CC(=O)C[C@@H](C)[C@]12Oc1c(Cl)c(OC)cc(OC)c1C2=O [GRISEOFULVIN],100,100,–,100,100,–,100,100,100,–,100,100,–,100,100,–,100,–,–,–,–
CN(C)C=O [DIMETHYLFORMAMIDE],–,–,–,–,–,–,–,–,–,20,–,–,20,–,–,20,–,20,–,–,zone of inhibition at 100 µg/mL (Escherichia coli [1]; read-out: IZ): 20 mm; zone of inhibition at 100 µg/mL (Bacillus [4]; read-out: IZ): 20 mm; zone of inhibition at 100 µg/mL (Aspergillus niger [7]; read-out: IZ): 20 mm; zone of inhibition at 100 µg/mL (Macrophomina phaseolina [10]; read-out: IZ): 20 mm
